Values quoted from earlier work in PMC12483202, “Pharmacokinetic profile of oral firocoxib in the koala (Phascolarctos cinereus)” (PLOS One, 2025).
Values after ≈ are worked out from the molar mass of the structure shown. Read-outs that look alike come from different tables or passages of the source.

Columns and labels:
[1] = cited from earlier work
[2] = test system: COX-2; conditions: cited from earlier work
[3] = test system: osteoarthritis in horses; parameters: method as in PMID 36684818; conditions: cited from earlier work
[4] = Dogs (40), PO 5 mg/kg, ref [1] of S9 Table

Compound: CC1(C)OC(=O)C(OCC2CC2)=C1c1ccc(S(C)(=O)=O)cc1 [firocoxib]
- t1/2 ([1]; Dogs (6), PO 5 mg/kg, ref [2] of S9 Table): 6.5 h
- Cmax [1, 4]: 0.52 µg/mL
- Tmax [1, 4]: 1.25 h
- t1/2 [1, 4]: 5.9 h
- Tmax ([1]; dogs): 1.25 h
- plasma elimination half-life (mean) ([1]; dogs): 5.90 h
- mean Cmax ([1]; dogs, oral 5 mg/kg): 0.52 µg/mL
- IC80 (COX-2) ([2]; horse whole blood, in vitro): 0.067 mg/L (≈ 0.199 µM)
- plasma concentration required to inhibit 80% of in vitro COX-2 reactions ([2]; horse, corrected from whole blood IC80): exceeding 103 ng/mL
- COX-1:COX-2 inhibition ratio ([2]; horses, whole blood): 643
- efficacy for controlling pain and inflammation associated with osteoarthritis [3]: good efficacy
